From US20140249135A1, “PIM KINASE INHIBITORS AND METHODS OF THEIR USE” (NOVARTIS AG, priority 2007, published 2014)

Key:
Assay type in all cases: biochemical
[1] = molecular target: Pim1 kinase (Homo sapiens, UniProt P11309); assay: Pim1 ATP depletion assay; conditions: Pim1 ATP depletion assay; read-out: IC50 (μM) PIM1;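 also: Luciferase-luciferin luminescence readout of residual ATP after PIM1 transfers phosphate to a peptide substrate, 40 µM ATP added, reaction run to roughly half ATP consumption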
[2] = molecular target: Pim2 kinase (Homo sapiens, UniProt Q9P1W9); assay: Pim2 ATP depletion assay; conditions: read-out: IC50 (μM) PIM2;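 also: Luciferase-based luminescent readout of ATP remaining after PIM2 phosphorylates a BAD peptide, final 5 nM enzyme, 4 µM ATP, 10 µM peptide, 2.5% DMSO, run to roughly half ATP consumption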
[3] = molecular target: Pim3 kinase (Homo sapiens, UniProt Q86V86); assay: Pim3 ATP depletion assay; conditions: read-out: IC50 (μM) PIM3

Measured: IC50

Pim1 kinase, sequence (P11309 whole entry): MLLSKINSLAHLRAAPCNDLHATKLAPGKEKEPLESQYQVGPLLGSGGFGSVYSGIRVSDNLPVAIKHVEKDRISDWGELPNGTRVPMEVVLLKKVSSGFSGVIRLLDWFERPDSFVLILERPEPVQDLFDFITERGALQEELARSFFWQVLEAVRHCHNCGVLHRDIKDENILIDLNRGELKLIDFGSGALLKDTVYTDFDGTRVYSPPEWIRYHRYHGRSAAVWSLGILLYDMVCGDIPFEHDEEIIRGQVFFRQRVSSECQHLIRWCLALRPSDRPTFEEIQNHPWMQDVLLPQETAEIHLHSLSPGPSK
Pim2 kinase, sequence (Q9P1W9 whole entry): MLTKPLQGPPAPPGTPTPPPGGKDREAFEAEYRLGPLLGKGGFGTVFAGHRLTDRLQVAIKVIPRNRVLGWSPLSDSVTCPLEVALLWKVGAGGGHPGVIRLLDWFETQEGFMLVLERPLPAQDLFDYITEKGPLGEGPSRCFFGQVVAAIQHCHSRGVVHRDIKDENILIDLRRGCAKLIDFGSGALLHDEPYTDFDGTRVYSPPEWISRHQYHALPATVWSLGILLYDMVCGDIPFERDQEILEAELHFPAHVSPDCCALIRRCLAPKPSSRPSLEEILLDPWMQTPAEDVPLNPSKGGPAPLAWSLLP

COc1cc(F)c(-c2ccc(N)c(C(=O)Nc3cnccc3N3CCC[C@H](N)C3)n2)cc1F [Example 477, 3-Amino-6-(2,5-difluoro-4-methoxy-phenyl)-pyridine-2-carboxylic acid (3-amino-3,4,5,6-tetrahydro-2H-[1,4′]bipyridinyl-3′-yl)-amide]
< 1 µM: all assays above

Cc1cc(F)c(-c2ccc(N)c(C(=O)Nc3cnccc3N3CCC[C@H](N)C3)n2)cc1Cl [Example 478, 3-Amino-6-(5-chloro-2-fluoro-4-methyl-phenyl)-pyridine-2-carboxylic acid (3-amino-3,4,5,6-tetrahydro-2H-[1,4′]bipyridinyl-3′-yl)-amide]
< 1 µM: all assays above

Nc1ccc(-c2cccc(Cl)c2F)nc1C(=O)Nc1cnccc1N1CCC[C@H](N)C1 [Example 479, 3-Amino-6-(3-chloro-2-fluoro-phenyl)-pyridine-2-carboxylic acid (3-amino-3,4,5,6-tetrahydro-2H-[1,4′]bipyridinyl-3′-yl)-amide]
< 1 µM: all assays above

Nc1ccc(-c2ccc(S(N)(=O)=O)cc2)nc1C(=O)Nc1cnccc1N1CCC[C@H](N)C1 [Example 480, 3-Amino-6-(4-sulfamoyl-phenyl)-pyridine-2-carboxylic acid (3-amino-3,4,5,6-tetrahydro-2H-[1,4′]bipyridinyl-3′-yl)-amide]
< 1 µM: all assays above

Nc1ccc(-c2cccc(S(N)(=O)=O)c2)nc1C(=O)Nc1cnccc1N1CCC[C@H](N)C1 [Example 481, 3-Amino-6-(3-sulfamoyl-phenyl)-pyridine-2-carboxylic acid (3-amino-3,4,5,6-tetrahydro-2H-[1,4′]bipyridinyl-3′-yl)-amide]
< 1 µM: all assays above

Nc1ncc(-c2ccc(N)c(C(=O)Nc3cnccc3N3CCC[C@H](N)C3)n2)c(C(F)(F)F)n1 [Example 486, 3-Amino-6-(2-amino-4-trifluoromethyl-pyrimidin-5-yl)-pyridine-2-carboxylic acid (3-amino-3,4,5,6-tetrahydro-2H-[1,4′]bipyridinyl-3′-yl)-amide]
< 1 µM: all assays above

CC(C)Oc1ccc(F)c(-c2ccc(N)c(C(=O)Nc3cnccc3N3CCC[C@H](N)C3)n2)c1F [Example 488, 3-Amino-6-(2,6-difIuoro-3-isopropoxy-phenyl)-pyridine-2-carboxylic acid (3-amino-3,4,5,6-tetrahydro-2H-[1,4′]bipyridinyl-3′-yl)-amide]
< 1 µM: all assays above

Cc1cscc1-c1ccc(N)c(C(=O)Nc2cnccc2N2CCC[C@H](N)C2)n1 [Example 489, 3-Amino-6-(4-methyl-thiophen-3-yl)-pyridine-2-carboxylic acid (3-amino-3,4,5,6-tetrahydro-2H-[1,4′]bipyridinyl-3′-yl)-amide]
< 1 µM: all assays above

N#Cc1ccsc1-c1ccc(N)c(C(=O)Nc2cnccc2N2CCC[C@H](N)C2)n1 [Example 490, 3-Amino-6-(3-cyano-thiophen-2-yl)-pyridine-2-carboxylic acid (3-amino-3,4,5,6-tetrahydro-2H-[1,4′]bipyridinyl-3′-yl)-amide]
< 1 µM: all assays above

CCOc1ccc(F)c(-c2ccc(N)c(C(=O)Nc3cnccc3N3CCC[C@H](N)C3)n2)c1F [Example 492, 3-Amino-6-(3-ethoxy-2,6-difluoro-phenyl)-pyridine-2-carboxylic acid (3-amino-3,4,5,6-tetrahydro-2H-[1,4′]bipyridinyl-3′-yl)-amide]
< 1 µM: all assays above

COc1ccc(F)c(-c2ccc(N)c(C(=O)Nc3cnccc3N3CCC[C@H](N)C3)n2)c1F [Example 493, 3-Amino-6-(2,6-difluoro-3-methoxy-phenyl)-pyridine-2-carboxylic acid (3-amino-3,4,5,6-tetrahydro-2H-[1,4′]bipyridinyl-3′-yl)-amide]
< 1 µM: all assays above

CCOc1ccc(F)c(-c2nc(C(=O)Nc3cnccc3N3CCC[C@H](N)C3)c(N)cc2F)c1F [Example 495, 3-Amino-6-(3-ethoxy-2,6-difluoro-phenyl)-5-fluoro-pyridine-2-carboxylic acid (3-amino-3,4,5,6-tetrahydro-2H-[1,4′]bipyridinyl-3′-yl)-amide]
< 1 µM: all assays above

Nc1cc(F)c(-c2cccc(S(N)(=O)=O)c2)nc1C(=O)Nc1cnccc1N1CCC[C@H](N)C1 [Example 497, 3-Amino-5-fluoro-6-(3-sulfamoyl-phenyl)-pyridine-2-carboxylic acid (3-amino-3,4,5,6-tetrahydro-2H-[1,4′]bipyridinyl-3′-yl)-amide]
< 1 µM: all assays above

CS(=O)(=O)Nc1cccc(-c2nc(C(=O)Nc3cnccc3N3CCC[C@H](N)C3)c(N)cc2F)c1 [Example 498, 3-Amino-5-fluoro-6-(3-methanesulfonylamino-phenyl)-pyridine-2-carboxylic acid (3-amino-3,4,5,6-tetrahydro-2H-[1,4′]bipyridinyl-3′-yl)-amide]
< 1 µM: all assays above

Nc1cc(F)c(-c2ccccc2)nc1C(=O)Nc1cnccc1N1CCC[C@H](N)C1 [Example 499, 3-Amino-5-fluoro-6-phenyl-pyridine-2-carboxylic acid (3-amino-3,4,5,6-tetrahydro-2H-[1,4′]bipyridinyl-3′-yl)-amide]
< 1 µM: all assays above

CC(=O)Nc1cccc(-c2nc(C(=O)Nc3cnccc3N3CCC[C@H](N)C3)c(N)cc2F)c1 [Example 500, 6-(3-Acetylamino-phenyl)-3-amino-5-fluoro-pyridine-2-carboxylic acid (3-amino-3,4,5,6-tetrahydro-2H-[1,4′]bipyridinyl-3′-yl)-amide]
< 1 µM: all assays above

COc1ccc(F)cc1-c1nc(C(=O)Nc2cnccc2N2CCC[C@H](N)C2)c(N)cc1F [Example 501, 3-Amino-5-fluoro-6-(5-fluoro-2-methoxy-phenyl)-pyridine-2-carboxylic acid (3-amino-3,4,5,6-tetrahydro-2H-[1,4′]bipyridinyl-3′-yl)-amide]
< 1 µM: all assays above

COc1ccc(F)c(-c2nc(C(=O)Nc3cnccc3N3CCC[C@H](N)C3)c(N)cc2F)c1 [Example 502, 3-Amino-5-fluoro-6-(2-fluoro-5-methoxy-phenyl)-pyridine-2-carboxylic acid (3-amino-3,4,5,6-tetrahydro-2H-[1,4′]bipyridinyl-3′-yl)-amide]
< 1 µM: all assays above

CC(C)NC(=O)c1ccc(F)c(-c2ccc(N)c(C(=O)Nc3cnccc3N3CCC[C@H](N)C3)n2)c1F [Example 503, 3-Amino-6-(2,6-difluoro-3-isopropylcarbamoyl-phenyl)-pyridine-2-carboxylic acid (3-amino-3,4,5,6-tetrahydro-2H-[1,4′]bipyridinyl-3′-yl)-amide]
< 1 µM: all assays above

COC(=O)c1nc(-c2ccc(N)c(C(=O)Nc3cnccc3N3CCC[C@H](N)C3)n2)c(F)cc1N [Example 504, 5,5′-Diamino-6′-(3-amino-3,4,5,6-tetrahydro-2H-[1,4′]bi-pyridinyl-3′-ylcarbamoyl)-3-fluoro-[2,2′]bipyridinyl-6-carboxylic acid methyl ester]
< 1 µM: all assays above

CCCCOc1ccc(F)c(-c2nc(C(=O)Nc3cnccc3N3CCC[C@H](N)C3)c(N)cc2F)c1F [Example 506, 3-Amino-6-(3-butoxy-2,6-difluoro-phenyl)-5-fluoro-pyridine-2-carboxylic acid (3-amino-3,4,5,6-tetrahydro-2H-[1,4′]bipyridinyl-3′-yl)-amide]
< 1 µM: all assays above

COc1cncc(-c2nc(C(=O)Nc3cnccc3N3CCC[C@H](N)C3)c(N)cc2F)n1 [Example 507, 3-Amino-5-fluoro-6-(6-methoxy-pyrazin-2-yl)-pyridine-2-carboxylic acid (3-amino-3,4,5,6-tetrahydro-2H-[1,4′]bipyridinyl-3′-yl)-amide]
< 1 µM: all assays above

CC(C)NC(=O)c1ccc(F)c(-c2nc(C(=O)Nc3cnccc3N3CCC[C@H](N)C3)c(N)cc2F)c1 [Example 508, 3-Amino-5-fluoro-6-(2-fluoro-5-isopropylcarbamoyl-phenyl)-pyridine-2-carboxylic acid (3-amino-3,4,5,6-tetrahydro-2H-[1,4′]bipyridinyl-3′-yl)-amide]
< 1 µM: all assays above
